Reference: the supplement of paper PMC10307832

Columns and labels:
Experiment in all cases: relative viability (nuclei count vs DMSO), 5 days (fraction); higher = more cells survive
[1] = compound: CC(C)CCN1c2nc(Nc3cc(F)c(O)c(F)c3)ncc2N(C)C(=O)C1C [BI-D1870] + O=C(c1cc(Cc2n[nH]c(=O)c3ccccc23)ccc1F)N1CCN(C(=O)C2CC2)CC1 [Olaparib] (partner 8 µM)
In short: (§1)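 Lung cancer cell lines were pin-tool dosed in 1536-well plates on the day after seeding, with either a lone drug or a fixed anchor-drug dose plus five library-drug doses (not always all listed) in √10 steps. Nuclei were counted on 4× images after 5 days. Relative viability is the ratio of treated-well to vehicle-well nuclei counts, with each value a median of duplicate plates.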

[2] = compound: CC(C)CCN1c2nc(Nc3cc(F)c(O)c(F)c3)ncc2N(C)C(=O)C1C [BI-D1870] + CC(C)C[C@H](NC(=O)[C@H](Cc1ccccc1)NC(=O)c1cnccn1)B(O)O [Bortezomib] (partner 0.002 µM)
In short: as §1

[3] = compound: CC(C)CCN1c2nc(Nc3cc(F)c(O)c(F)c3)ncc2N(C)C(=O)C1C [BI-D1870] + CS(=O)(=O)N1CCN(Cc2cc3nc(-c4cccc5[nH]ncc45)nc(N4CCOCC4)c3s2)CC1 [Pictilisib] (partner 1 µM)
In short: as §1

[4] = compound: O=c1ncccn1[C@@H]1O[C@H](CO)[C@@H](O)[C@H]1O [Zebularine] + Cc1nc(Nc2ncc(C(=O)Nc3c(C)cccc3Cl)s2)cc(N2CCN(CCO)CC2)n1 [Dasatinib] (partner 0.075 µM)
In short: as §1

| Cell Line | relative viability ([1]; first compound 0.04 µM) | relative viability ([1]; first compound 0.1265 µM) | relative viability ([1]; first compound 0.4 µM) | relative viability ([1]; first compound 1.265 µM) | relative viability ([1]; first compound 4 µM) | relative viability ([2]; first compound 0.04 µM) | relative viability ([2]; first compound 0.1265 µM) | relative viability ([2]; first compound 0.4 µM) | relative viability ([2]; first compound 1.265 µM) | relative viability ([2]; first compound 4 µM) | relative viability ([3]; first compound 0.04 µM) | relative viability ([3]; first compound 0.1265 µM) | relative viability ([3]; first compound 0.4 µM) | relative viability ([3]; first compound 1.265 µM) | relative viability ([3]; first compound 4 µM) | relative viability ([4]; first compound 1 µM) | relative viability ([4]; first compound 3.162 µM) | relative viability ([4]; first compound 10 µM) | relative viability ([4]; first compound 31.62 µM) | relative viability ([4]; first compound 100 µM) |
| --- | --- | --- | --- | --- | --- | --- | --- | --- | --- | --- | --- | --- | --- | --- | --- | --- | --- | --- | --- | --- |
| LC-2-ad | 0.691 | 0.66 | 0.725 | 0.609 | 0.624 | 1.11 | 0.921 | 0.999 | 1.04 | 0.953 | 0.536 | 0.456 | 0.498 | 0.0168 | 0.474 | 0.731 | 0.494 | 0.226 | 0.491 | 0.34 |
| LCLC-97TM1 | 0.521 | 0.33 | 0.38 | 0.634 | 0.301 | 0.833 | 0.693 | 0.734 | 0.957 | 0.372 | 0.183 | 0.151 | 0.175 | 0.21 | 0.153 | 0.868 | 0.844 | 0.509 | 0.577 | 0.315 |
| LCLC-103H | 0.813 | 0.68 | 0.676 | 0.764 | 0.671 | 1.28 | 1.09 | 1.06 | 1.17 | 1.06 | 0.631 | 0.573 | 0.563 | 0.573 | 0.494 | 0.485 | 0.479 | 0.251 | 0.475 | 0.44 |
| LOU-NH91 | 1.06 | 0.892 | 0.903 | 0.911 | 0.669 | 0.485 | 0.465 | 0.451 | 0.484 | 0.466 | 0.413 | 0.503 | 0.504 | 0.587 | 0.44 | 0.569 | 0.595 | 0.553 | 0.571 | 0.473 |
| LU99A | 0.274 | 0.243 | 0.264 | 0.244 | 0.229 | 1.34 | 1.03 | 1.12 | 1.06 | 1.02 | 0.368 | 0.253 | 0.319 | 0.305 | 0.358 | 0.722 | 0.523 | 0.44 | 0.325 | 0.116 |
| LXF-289 | 1.1 | 1.04 | 1.06 | 1.08 | 0.612 | 1.05 | 1.02 | 1 | 0.977 | 0.879 | 0.833 | 0.763 | 0.798 | 0.745 | 0.665 | 0.233 | 0.187 | 0.184 | 0.175 | 0.154 |
| NCI-H23 | 0.307 | 0.263 | 0.294 | 0.301 | 0.212 | 1.44 | 0.85 | 1.16 | 1.03 | 0.529 | 0.625 | 0.445 | 0.433 | 0.421 | 0.26 | 0.83 | 0.876 | 0.497 | 0.774 | 0.791 |
| NCI-H322M | 0.736 | 0.75 | 0.713 | 0.735 | 0.624 | 1.23 | 1.24 | 1.22 | 1.14 | 1.06 | 0.579 | 0.526 | 0.411 | 0.526 | 0.475 | 0.257 | 0.263 | 0.237 | 0.278 | 0.246 |
| NCI-H441 | 0.682 | 0.549 | 0.569 | 0.537 | 0.492 | 0.749 | 0.535 | 0.796 | 0.777 | 0.71 | 0.498 | 0.374 | 0.518 | 0.466 | 0.492 | 0.705 | 0.619 | 0.394 | 0.41 | 0.271 |
| NCI-H460 | 0.492 | 0.384 | 0.323 | 0.436 | 0.179 | 1.45 | 1.01 | 1.06 | 0.686 | 0.51 | 0.437 | 0.364 | 0.31 | 0.391 | 0.33 | 0.725 | 0.527 | 0.326 | 0.304 | 0.0827 |
| NCI-H520 | 0.336 | 0.355 | 0.295 | 0.246 | 0.162 | 0.618 | 0.521 | 0.525 | 0.542 | 0.309 | 0.317 | 0.275 | 0.348 | 0.36 | 0.233 | 0.195 | 0.175 | 0.14 | 0.172 | 0.164 |
| NCI-H596 | 0.73 | 0.743 | 0.625 | 0.671 | 0.63 | 1.38 | 0.86 | 1.12 | 1.19 | 0.943 | 0.388 | 0.402 | 0.385 | 0.428 | 0.393 | 0.606 | 0.648 | 0.461 | 0.694 | 0.565 |
| NCI-H647 | 0.747 | 0.447 | 0.579 | 0.496 | 0.359 | 1.02 | 0.857 | 1.08 | 1.31 | 0.743 | 0.497 | 0.387 | 0.444 | 0.512 | 0.34 | 0.202 | 0.208 | 0.129 | 0.101 | 0.109 |
| NCI-H650 | 0.443 | 0.375 | 0.366 | 0.369 | 0.315 | 1.11 | 0.784 | 0.899 | 0.96 | 0.611 | 0.9 | 0.745 | 0.87 | 0.811 | 0.651 | 0.462 | 0.486 | 0.403 | 0.397 | 0.268 |
| NCI-H661 | 0.781 | 0.746 | 0.738 | 0.737 | 0.58 | 0.801 | 0.67 | 0.695 | 1.01 | 0.808 | 0.377 | 0.44 | 0.36 | 0.505 | 0.313 | 0.833 | 0.918 | 0.868 | 1.05 | 0.819 |
| NCI-H727 | 0.704 | 0.563 | 0.675 | 0.649 | 0.779 | 0.813 | 0.724 | 0.913 | 1.24 | 0.833 | 0.425 | 0.35 | 0.354 | 0.509 | 0.366 | 0.383 |  |  | 0.349 | 0.356 |
